This note sets out measurements from article PMC3351444, “Molecular Evolution of a Peptide GPCR Ligand Driven by Artificial Neural Networks” (PLoS ONE, 2012).

Where two headings read alike, the source gives them in different places. Square brackets hold non-standard residues; d marks the D form. Ends that are not written are not given here. Peptide text beside a SMILES is read from it.

For one data set, the target named is T1, human CMKLR1 (Homo sapiens, UniProt Q99788).
T1 construct: host or cells: HEK293A (Invitrogen), stably expressing human Gα15
T1 sequence (Q99788 1-373): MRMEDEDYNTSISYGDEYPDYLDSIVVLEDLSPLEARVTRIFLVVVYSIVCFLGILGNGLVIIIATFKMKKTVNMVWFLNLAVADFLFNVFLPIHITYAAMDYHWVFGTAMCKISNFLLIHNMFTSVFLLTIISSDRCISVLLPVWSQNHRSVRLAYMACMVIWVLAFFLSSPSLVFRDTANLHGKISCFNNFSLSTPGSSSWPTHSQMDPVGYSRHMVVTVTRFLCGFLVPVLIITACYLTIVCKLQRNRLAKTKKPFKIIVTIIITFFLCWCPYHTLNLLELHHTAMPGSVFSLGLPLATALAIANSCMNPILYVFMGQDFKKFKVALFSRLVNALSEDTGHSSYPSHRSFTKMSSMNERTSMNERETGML
Nature of the data set: Ca2+ mobilization (CellLux imaging) agonist assay in HEK293A cells expressing CMKLR1 and Gα15. Format: cell-based. Put shortly:
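HEK293A cells co-expressing CMKLR1 and Gα15 were loaded with FLUO4-AM, and peptides were added robotically in C1 buffer (HEPES pH 7.4, 2 mM CaCl2) with 0.1% BSA. Fluorescence changes were read in duplicate wells, buffer-subtracted and normalized to background. EC50 came from amplitude–concentration plots.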
Background: Calcium flux is commonly read through the fluorescence of an indicator in the cells.

Data set [1] is described as follows: In vitro peptide stability in human serum (RP-HPLC). Conditions: for half-life at 50 µg/mL: human, human serum, 25% (v/v) in RPMI; for t1/2: metabolic stability in human serum.
Experimental: The initial time is recorded, and at known time intervals 50 µL of the reaction solution is removed and added to 100 µL of 6% aqueous trichloroacetic acid (TCA) for precipitation of serum proteins. […] The reaction supernatant is then analyzed using RP-HPLC (Agilent 1200 LC System) on a ZORBAX Eclipse XDB-C18, 4.6×150 mm, 5 µm column (Agilent). […] Fluorescence is detected at an excitation wavelength of 280 nm and emission wavelength of 340 nm. Kinetic analysis was carried out by least-squares analysis of the logarithm of the integration peak area versus time.
Setting [2] is: intracellular calcium mobilization, HEK293 cells expressing CMKLR1, mean of three independent experiments ± SD, read-out: activity: EC50 ±SD.
The mark [3] stands for this setting: Ca2+ mobilization, CMKLR1, decimal comma.
The mark [4] stands for this setting: Ca2+ mobilization, CMKLR1, decimal comma, NR where no EC50 is given, read-out: EC50.

Broadly, the EC50 is the midpoint of the concentration-response curve. By half-life is commonly meant the time in which the quantity being followed falls by half.

Take `CC(C)C[C@H](NC(=O)[C@H](N)Cc1ccc(O)cc1)C(=O)N1CCC[C@H]1C(=O)N[C@H](CO)C(=O)N[C@@H](CCC(N)=O)C(=O)N[C@@H](Cc1ccc(O)cc1)C(=O)N[C@@H](C)C(=O)N[C@@H](Cc1ccccc1)C(=O)N[C@H](CO)C(=O)O` [yLPsQYAFs] (H-[dY]LP[dS]QYAF[dS]-OH; N-terminus assumed): the EC50 at human CMKLR1 (setting [2]) came to 2.9 ± 1.34 nM. Also, in data set [1], the half-life at 50 µg/mL is 1410 ± 85 min.
As to FLFGFQFAY-OH [compound 109], at human CMKLR1 (setting [3]), the max response is on record as 1,7 DF/F0. At human CMKLR1 (setting [4]), the EC50 was 1650 nM. The same compound displayed a half-life at 50 µg/mL in data set [1] of 16 min.
The like results for FLPGALGFF-OH [compound 60] were, in that order, 0,69 DF/F0, 406 nM and 19 min.
On to FLPGQFLPG-OH [compound 63], for which the max response at human CMKLR1 (setting [3]) is 0,81 DF/F0. Further, the EC50 on human CMKLR1 (setting [4]) came out at 554 nM. Further, the half-life at 50 µg/mL in data set [1] worked out at 46 min.
FLPGQPYFL-OH [compound 65]: the max response on human CMKLR1 (setting [3]) is reported as 0,91 DF/F0. The EC50 at human CMKLR1 (setting [4]) was 713 nM. This compound also gave a half-life at 50 µg/mL in data set [1] of 32 min.
Regarding FLPGQYAFK-OH [compound 64], the max response at human CMKLR1 (setting [3]) is on record as 0,93 DF/F0. Moreover, the EC50 on human CMKLR1 (setting [4]) was determined as 567 nM. For the same compound, the half-life at 50 µg/mL in data set [1] amounted to 26 min.
For FLPGQYAFL-OH [compound 46], in that order: 1,06 DF/F0, 13.5 nM and 28 min.
As for FLPGQYAFS-OH, the EC50 at human CMKLR1 (setting [2]) worked out at 2.75 ± 0.14 nM. This compound came in with a half-life at 50 µg/mL in data set [1] of 28 ± 1 min.
As to FLPGQYAFS-OH [compound 34], the max response at human CMKLR1 (setting [3]) was 0,68 DF/F0. In addition, the t1/2 in data set [1] was 28 min.
With FLPPQFAFF-OH [compound 73], the max response on human CMKLR1 (setting [3]) was 0,77 DF/F0. The EC50 at human CMKLR1 (setting [4]) turned out to be 3000 nM. The same compound had a half-life at 50 µg/mL in data set [1] of 20 min.
The like results for LLPGLFLKL-OH [compound 74] were, in that order, 0,85 DF/F0, 5120 nM and 39 min.
Take PGPGQFAFF-OH [compound 59]: the max response at human CMKLR1 (setting [3]) is reported as 0,9 DF/F0. In addition, the EC50 on human CMKLR1 (setting [4]) was determined as 335 nM. Moreover, the half-life at 50 µg/mL in data set [1] was 80 min.
For PLPGQFQFK-OH [compound 70], in that order: 0,43 DF/F0, 1920 nM and 27 min.
Turning to PLPGQQAFF-OH [compound 79], the max response on human CMKLR1 (setting [3]) is given as 0,6 DF/F0. In data set [1], this compound came in with a half-life at 50 µg/mL of 84 min.
With YFLGQFAFK-OH [compound 76], on human CMKLR1 (setting [3]), the max response is on record as 0,65 DF/F0. Also, the EC50 at human CMKLR1 (setting [4]) turned out to be 5830 nM. The same compound returned a half-life at 50 µg/mL in data set [1] of 16 min.
With YFPGQFAFG-OH [compound 29], the max response at human CMKLR1 was 1,01 DF/F0. Also, the t1/2 in data set [1] is 13 min.
Consider YFPGQYAFF-OH [compound 30], for which the max response on human CMKLR1 (setting [3]) was 0,98 DF/F0. For the same compound, on human CMKLR1 (setting [4]), the EC50 came to 1.89 nM. In addition, the half-life at 50 µg/mL in data set [1] is 26 min.
With YLPGQFAFL-OH [compound 39], the max response at human CMKLR1 (setting [3]) is 1,01 DF/F0. For the same compound, the EC50 at human CMKLR1 (setting [4]) amounted to 5.85 nM. This compound also yielded a half-life at 50 µg/mL in data set [1] of 24 min.
The like results for YLPGQFQFS-OH [compound 44] were, in that order, 0,76 DF/F0, 9.54 nM and 15 min.
The like results for YLPGQGAFK-OH [compound 69] were, in that order, 0,99 DF/F0, 1870 nM and 22 min.
For YLPGQGAFP-OH [compound 49], in that order: 0,97 DF/F0, 28.7 nM and 17 min.
Consider YLPGQYAFL-OH, for which, on human CMKLR1 (setting [2]), the EC50 came out at 5.75 ± 2.56 nM. For the same compound, the half-life at 50 µg/mL in data set [1] turned out to be 27 ± 4 min.
For the compound YLPGQYAFL-OH [compound 38], on human CMKLR1 (setting [3]), the max response was 1,05 DF/F0. The t1/2 in data set [1] turned out to be 27 min.
In the case of YLPGQYAFY-OH [compound 48], on human CMKLR1 (setting [3]), the max response is 0,92 DF/F0. For the same compound, the EC50 on human CMKLR1 (setting [4]) came to 15.6 nM. Moreover, the half-life at 50 µg/mL in data set [1] stood at 16 min.
For YLPGQYLFL-OH [compound 56], in that order: 0,57 DF/F0, 114 nM and 19 min.
Turning to YLPGYLPGH-OH [compound 77], the max response at human CMKLR1 (setting [3]) is recorded as 1,04 DF/F0. Moreover, the EC50 on human CMKLR1 (setting [4]) turned out to be 217000 nM. The half-life at 50 µg/mL in data set [1] was 17 min.
YPPGQYAFF-OH [compound 68]: the max response at human CMKLR1 (setting [3]) is 0,94 DF/F0. Moreover, the EC50 at human CMKLR1 (setting [4]) was 1480 nM. The half-life at 50 µg/mL in data set [1] amounted to 54 min.
